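Growth conditions: 96-well plates. Treatment: test compound, 48 hours, 5 concentrations. Analysis: linear interpolation between bracketing concentrations; unreached endpoints set to highest concentration. TGI: concentration producing complete growth inhibition.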
Legend:
Test in all cases: NCI tumour cell line growth inhibition, 48 h
[1] = test system: NCI-H226 lung
[2] = test system: SN12C renal
[3] = test system: MALME-3M melanoma
[4] = test system: OVCAR-5 ovarian
[5] = test system: MDA-MB-231 breast
[6] = test system: UACC-257 melanoma
[7] = test system: BT-549 breast
[8] = test system: NCI-H522 lung
[9] = test system: COLO 205 colon
[10] = test system: OVCAR-3 ovarian
[11] = test system: OVCAR-8 ovarian
[12] = test system: HCT-15 colon
[13] = test system: NCI-H460 lung
[14] = test system: M14 melanoma
[15] = test system: HL-60(TB) leukemia
[16] = test system: T-47D breast
[17] = test system: NCI/ADR-RES ovarian
[18] = test system: K-562 leukemia
[19] = test system: RPMI-8226 leukemia
[20] = test system: MOLT-4 leukemia
[21] = test system: CCRF-CEM leukemia
[22] = test system: HT29 colon
[23] = test system: DU-145 prostate
[24] = test system: KM12 colon
[25] = test system: PC-3 prostate
[26] = test system: SK-MEL-5 melanoma
[27] = test system: SNB-19 CNS
[28] = test system: SNB-75 CNS
[29] = test system: SF-295 CNS
[30] = test system: HCT-116 colon
[31] = test system: IGROV1 ovarian
[32] = test system: SR leukemia
[33] = test system: NCI-H23 lung
[34] = test system: UO-31 renal
[35] = test system: ACHN renal
[36] = test system: MCF7 breast
[37] = test system: MDA-N
[38] = test system: SK-MEL-28 melanoma
[39] = test system: 786-0 renal
[40] = test system: U251 CNS
[41] = test system: EKVX NSCLC
[42] = test system: LOX IMVI melanoma
[43] = test system: HS 578T breast
[44] = test system: HOP-62 NSCLC
[45] = test system: SK-OV-3 ovarian
[46] = test system: CAKI-1 renal
[47] = test system: SF-268 CNS
[48] = test system: TK-10 renal
[49] = test system: RXF 393 renal
[50] = test system: UACC-62 melanoma
[51] = test system: OVCAR-4 ovarian
[52] = test system: A549 NSCLC
[53] = test system: SF-539 CNS
[54] = test system: SK-MEL-2 melanoma
[55] = test system: SW-620 colon
[56] = test system: MDA-MB-435
[57] = test system: HCC-2998 colon
[58] = test system: A498 renal
[59] = test system: HOP-92 NSCLC

S=C1C=C(c2ccccc2)Sc2ccccc2N1
TGI [1]: > 100 µM | TGI [2]: > 100 µM | TGI [3]: > 100 µM | TGI [4]: > 100 µM | TGI [5]: > 100 µM | TGI [6]: > 100 µM | TGI [7]: > 100 µM | TGI [8]: > 100 µM | TGI [9]: > 100 µM | TGI [10]: > 100 µM | TGI [11]: > 100 µM | TGI [12]: > 100 µM | TGI [13]: > 100 µM | TGI [14]: > 100 µM | TGI [15]: > 100 µM | TGI [16]: > 100 µM | TGI [17]: > 100 µM | TGI [18]: > 100 µM | TGI [19]: > 100 µM | TGI [20]: > 100 µM | TGI [21]: > 100 µM | TGI [22]: > 100 µM | TGI [23]: > 100 µM | TGI [24]: > 100 µM | TGI [25]: > 100 µM | TGI [26]: > 100 µM | TGI [27]: > 100 µM | TGI [28]: > 100 µM | TGI [29]: > 100 µM | TGI [30]: > 100 µM | TGI [31]: > 100 µM | TGI [32]: > 100 µM | TGI [33]: > 100 µM | TGI [34]: > 100 µM | TGI [35]: > 100 µM | TGI [36]: > 100 µM | TGI [37]: > 100 µM | TGI [38]: > 100 µM | TGI [39]: > 100 µM | TGI [40]: > 100 µM | TGI [41]: > 100 µM | TGI [42]: > 100 µM | TGI [43]: > 100 µM | TGI [44]: > 100 µM | TGI [45]: > 100 µM | TGI [46]: > 100 µM | TGI [47]: > 100 µM | TGI [48]: > 100 µM | TGI [49]: > 100 µM | TGI [50]: > 100 µM | TGI [51]: > 100 µM | TGI [52]: > 100 µM

Cc1nc2c(-c3ccccc3)[nH]c(C)c2c(=O)o1
TGI [1]: > 100 µM | TGI [2]: > 100 µM | TGI [4]: > 100 µM | TGI [5]: > 100 µM | TGI [53]: > 100 µM | TGI [6]: > 100 µM | TGI [7]: > 100 µM | TGI [8]: > 100 µM | TGI [9]: > 100 µM | TGI [11]: > 100 µM | TGI [12]: > 100 µM | TGI [13]: > 100 µM | TGI [14]: > 100 µM | TGI [15]: > 100 µM | TGI [54]: > 100 µM | TGI [16]: > 100 µM | TGI [17]: > 100 µM | TGI [55]: > 100 µM | TGI [18]: > 100 µM | TGI [19]: > 100 µM | TGI [20]: > 100 µM | TGI [21]: > 100 µM | TGI [22]: > 100 µM | TGI [23]: > 100 µM | TGI [24]: > 100 µM | TGI [25]: > 100 µM | TGI [26]: > 100 µM | TGI [27]: > 100 µM | TGI [56]: > 100 µM | TGI [28]: > 100 µM | TGI [29]: > 100 µM | TGI [30]: > 100 µM | TGI [31]: > 100 µM | TGI [32]: > 100 µM | TGI [33]: > 100 µM | TGI [34]: > 100 µM | TGI [35]: > 100 µM | TGI [36]: 37.7 µM | TGI [57]: > 100 µM | TGI [37]: > 100 µM | TGI [38]: > 100 µM | TGI [58]: > 100 µM | TGI [39]: > 100 µM | TGI [40]: > 100 µM | TGI [41]: > 100 µM | TGI [42]: > 100 µM | TGI [43]: > 100 µM | TGI [44]: > 100 µM | TGI [45]: > 100 µM | TGI [46]: > 100 µM | TGI [47]: > 100 µM | TGI [48]: > 100 µM | TGI [49]: > 100 µM | TGI [50]: > 100 µM | TGI [59]: > 100 µM | TGI [51]: > 100 µM | TGI [52]: > 100 µM

— PubChem BioAssay (NCI)
